Source: patent US20240246942A1, “KINASE INHIBITORS FOR THE TREATMENT OF NEURODEGENERATIVE DISEASES” (priority 2020, published 2024)

Legend:
Experiment in all cases: biochemical
[1] = biological target: T1, panel of 374 wild-type kinases (Homo sapiens, UniProt Q05397); settings: read-out: % Enzyme Activity (relative to DMSO controls), FAK/PTK2
T1 construct: purchased Reaction Biology Corporation

[2] = biological target: T2, panel of 374 wild-type kinases (Homo sapiens, UniProt P29320); settings: read-out: % Enzyme Activity (relative to DMSO controls), EPHA3
T2 construct: purchased Reaction Biology Corporation
T2 sequence (P29320 21-983): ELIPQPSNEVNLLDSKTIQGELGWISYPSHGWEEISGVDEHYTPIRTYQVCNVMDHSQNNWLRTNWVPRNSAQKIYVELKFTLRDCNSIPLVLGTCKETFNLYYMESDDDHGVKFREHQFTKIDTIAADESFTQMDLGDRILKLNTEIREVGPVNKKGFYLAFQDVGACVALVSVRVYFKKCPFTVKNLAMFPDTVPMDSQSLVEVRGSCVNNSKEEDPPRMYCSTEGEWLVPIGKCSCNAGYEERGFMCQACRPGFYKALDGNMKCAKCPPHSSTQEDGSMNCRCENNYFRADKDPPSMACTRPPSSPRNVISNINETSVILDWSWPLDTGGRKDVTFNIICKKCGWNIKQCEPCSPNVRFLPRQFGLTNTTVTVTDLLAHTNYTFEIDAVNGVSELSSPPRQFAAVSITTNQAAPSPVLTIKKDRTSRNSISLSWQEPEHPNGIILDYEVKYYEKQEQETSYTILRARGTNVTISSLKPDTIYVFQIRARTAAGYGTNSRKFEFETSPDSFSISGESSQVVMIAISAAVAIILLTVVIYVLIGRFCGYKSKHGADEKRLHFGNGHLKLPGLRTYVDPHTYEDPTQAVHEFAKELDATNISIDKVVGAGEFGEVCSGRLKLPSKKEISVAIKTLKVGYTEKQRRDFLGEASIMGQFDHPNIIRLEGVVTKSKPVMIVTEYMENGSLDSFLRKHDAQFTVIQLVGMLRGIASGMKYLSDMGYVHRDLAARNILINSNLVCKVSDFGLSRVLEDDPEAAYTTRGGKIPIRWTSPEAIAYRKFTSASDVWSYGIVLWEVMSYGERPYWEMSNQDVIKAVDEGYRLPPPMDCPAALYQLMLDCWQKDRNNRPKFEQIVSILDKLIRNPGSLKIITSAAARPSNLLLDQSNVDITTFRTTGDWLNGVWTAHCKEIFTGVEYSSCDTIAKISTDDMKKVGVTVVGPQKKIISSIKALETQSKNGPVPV

[3] = biological target: T3, panel of 374 wild-type kinases (Homo sapiens, UniProt P29322); settings: read-out: % Enzyme Activity (relative to DMSO controls), EPHA8
T3 construct: purchased Reaction Biology Corporation
T3 sequence (P29322 28-1005): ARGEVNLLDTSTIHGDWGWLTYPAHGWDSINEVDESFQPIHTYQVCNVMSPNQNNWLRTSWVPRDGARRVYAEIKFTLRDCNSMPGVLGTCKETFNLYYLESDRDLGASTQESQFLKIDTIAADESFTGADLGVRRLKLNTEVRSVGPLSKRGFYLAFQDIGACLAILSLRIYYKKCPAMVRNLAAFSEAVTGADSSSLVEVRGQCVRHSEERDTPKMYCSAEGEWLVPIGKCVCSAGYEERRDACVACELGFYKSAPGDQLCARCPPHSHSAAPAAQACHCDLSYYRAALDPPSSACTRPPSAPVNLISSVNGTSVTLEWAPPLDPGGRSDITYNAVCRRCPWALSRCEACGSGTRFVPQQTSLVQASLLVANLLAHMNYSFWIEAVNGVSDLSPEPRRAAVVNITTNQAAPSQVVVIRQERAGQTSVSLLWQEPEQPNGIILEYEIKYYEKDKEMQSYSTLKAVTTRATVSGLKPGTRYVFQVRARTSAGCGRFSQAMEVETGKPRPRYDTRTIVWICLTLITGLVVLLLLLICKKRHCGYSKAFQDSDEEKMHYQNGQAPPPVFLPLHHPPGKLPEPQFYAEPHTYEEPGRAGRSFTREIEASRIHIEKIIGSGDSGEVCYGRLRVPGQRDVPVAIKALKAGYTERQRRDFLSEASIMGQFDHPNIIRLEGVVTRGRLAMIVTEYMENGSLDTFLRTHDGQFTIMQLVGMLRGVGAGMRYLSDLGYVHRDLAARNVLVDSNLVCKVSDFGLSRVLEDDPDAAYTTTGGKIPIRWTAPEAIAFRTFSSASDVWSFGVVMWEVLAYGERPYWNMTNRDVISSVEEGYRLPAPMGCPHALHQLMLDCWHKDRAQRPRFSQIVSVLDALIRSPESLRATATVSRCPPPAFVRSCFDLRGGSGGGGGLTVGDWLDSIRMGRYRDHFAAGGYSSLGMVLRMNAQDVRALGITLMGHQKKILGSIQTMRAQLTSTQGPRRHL

[4] = biological target: T4, panel of 374 wild-type kinases (Homo sapiens, UniProt P53778); settings: read-out: % Enzyme Activity (relative to DMSO controls), kinase P38g
T4 construct: purchased Reaction Biology Corporation
T4 sequence (P53778 1-367): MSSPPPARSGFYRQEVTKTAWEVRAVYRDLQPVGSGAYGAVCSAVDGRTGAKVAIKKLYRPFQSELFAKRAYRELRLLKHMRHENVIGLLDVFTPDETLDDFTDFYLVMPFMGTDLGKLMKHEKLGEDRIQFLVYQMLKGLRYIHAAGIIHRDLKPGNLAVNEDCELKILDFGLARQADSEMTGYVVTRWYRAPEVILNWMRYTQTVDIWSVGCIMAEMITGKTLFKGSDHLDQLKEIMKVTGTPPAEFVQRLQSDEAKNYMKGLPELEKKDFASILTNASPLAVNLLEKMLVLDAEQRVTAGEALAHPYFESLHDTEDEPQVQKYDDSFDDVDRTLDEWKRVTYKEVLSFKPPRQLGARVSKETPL

[5] = biological target: T5, panel of 374 wild-type kinases (Homo sapiens, UniProt Q14012); settings: read-out: % Enzyme Activity (relative to DMSO controls), CAMK1a
T5 construct: purchased Reaction Biology Corporation
T5 sequence (Q14012 whole entry): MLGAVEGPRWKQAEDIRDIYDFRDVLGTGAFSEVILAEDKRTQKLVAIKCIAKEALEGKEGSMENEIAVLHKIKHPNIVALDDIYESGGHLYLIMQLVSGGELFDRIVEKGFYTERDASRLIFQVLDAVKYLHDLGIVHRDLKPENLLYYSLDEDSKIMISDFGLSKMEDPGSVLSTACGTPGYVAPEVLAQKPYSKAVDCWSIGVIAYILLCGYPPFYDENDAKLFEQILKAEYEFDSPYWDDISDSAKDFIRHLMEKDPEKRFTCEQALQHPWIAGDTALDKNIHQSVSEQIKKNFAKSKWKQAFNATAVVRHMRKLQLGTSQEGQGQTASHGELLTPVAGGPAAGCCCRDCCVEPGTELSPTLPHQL

[6] = biological target: T6, panel of 374 wild-type kinases (Homo sapiens, UniProt P06241); settings: read-out: % Enzyme Activity (relative to DMSO controls), FYN
T6 construct: purchased Reaction Biology Corporation
T6 sequence (P06241 whole entry): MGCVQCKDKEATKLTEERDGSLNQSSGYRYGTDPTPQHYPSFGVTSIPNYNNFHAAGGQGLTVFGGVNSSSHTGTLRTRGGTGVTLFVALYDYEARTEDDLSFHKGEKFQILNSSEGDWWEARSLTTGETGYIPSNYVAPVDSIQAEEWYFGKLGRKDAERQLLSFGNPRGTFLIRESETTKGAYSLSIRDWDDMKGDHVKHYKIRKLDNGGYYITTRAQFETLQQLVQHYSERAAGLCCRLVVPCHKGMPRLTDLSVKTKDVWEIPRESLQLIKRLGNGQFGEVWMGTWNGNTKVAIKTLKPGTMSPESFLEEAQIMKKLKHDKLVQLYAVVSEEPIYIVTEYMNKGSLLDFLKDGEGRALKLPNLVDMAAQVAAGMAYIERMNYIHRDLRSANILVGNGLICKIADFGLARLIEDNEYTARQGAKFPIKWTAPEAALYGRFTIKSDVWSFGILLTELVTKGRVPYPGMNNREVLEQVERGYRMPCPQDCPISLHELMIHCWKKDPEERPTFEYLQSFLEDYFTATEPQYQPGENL

[7] = biological target: T7, panel of 374 wild-type kinases (Homo sapiens, UniProt Q16566); settings: read-out: % Enzyme Activity (relative to DMSO controls), CAMK4
T7 construct: purchased Reaction Biology Corporation
T7 sequence (Q16566 whole entry): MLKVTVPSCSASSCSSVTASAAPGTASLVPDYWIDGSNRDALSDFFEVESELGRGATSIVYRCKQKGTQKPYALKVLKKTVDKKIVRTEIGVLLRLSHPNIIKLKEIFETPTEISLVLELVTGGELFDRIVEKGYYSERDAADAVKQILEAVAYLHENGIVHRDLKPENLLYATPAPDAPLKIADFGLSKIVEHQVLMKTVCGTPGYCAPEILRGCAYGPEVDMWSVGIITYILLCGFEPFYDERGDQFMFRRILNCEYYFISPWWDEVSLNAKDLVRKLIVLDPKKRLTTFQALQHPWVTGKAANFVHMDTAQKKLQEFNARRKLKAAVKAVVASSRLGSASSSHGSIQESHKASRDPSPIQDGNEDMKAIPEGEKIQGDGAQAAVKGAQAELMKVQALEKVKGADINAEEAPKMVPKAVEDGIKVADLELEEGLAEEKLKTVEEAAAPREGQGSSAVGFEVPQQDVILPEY

[8] = biological target: T8, panel of 374 wild-type kinases (Homo sapiens, UniProt P19784); settings: CK2a2, read-out: % Enzyme Activity (relative to DMSO controls)
T8 construct: purchased Reaction Biology Corporation
T8 sequence (P19784 whole entry): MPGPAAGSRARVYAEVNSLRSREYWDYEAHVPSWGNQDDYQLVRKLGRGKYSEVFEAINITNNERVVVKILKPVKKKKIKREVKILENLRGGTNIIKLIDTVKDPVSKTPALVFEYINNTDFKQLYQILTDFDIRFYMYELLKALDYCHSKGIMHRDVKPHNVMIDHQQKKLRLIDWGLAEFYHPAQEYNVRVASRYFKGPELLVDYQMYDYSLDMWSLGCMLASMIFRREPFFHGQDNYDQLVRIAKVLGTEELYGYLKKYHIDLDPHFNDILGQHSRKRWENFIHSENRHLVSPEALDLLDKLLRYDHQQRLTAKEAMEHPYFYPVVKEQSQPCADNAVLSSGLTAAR

T1 sequence (Q05397 whole entry): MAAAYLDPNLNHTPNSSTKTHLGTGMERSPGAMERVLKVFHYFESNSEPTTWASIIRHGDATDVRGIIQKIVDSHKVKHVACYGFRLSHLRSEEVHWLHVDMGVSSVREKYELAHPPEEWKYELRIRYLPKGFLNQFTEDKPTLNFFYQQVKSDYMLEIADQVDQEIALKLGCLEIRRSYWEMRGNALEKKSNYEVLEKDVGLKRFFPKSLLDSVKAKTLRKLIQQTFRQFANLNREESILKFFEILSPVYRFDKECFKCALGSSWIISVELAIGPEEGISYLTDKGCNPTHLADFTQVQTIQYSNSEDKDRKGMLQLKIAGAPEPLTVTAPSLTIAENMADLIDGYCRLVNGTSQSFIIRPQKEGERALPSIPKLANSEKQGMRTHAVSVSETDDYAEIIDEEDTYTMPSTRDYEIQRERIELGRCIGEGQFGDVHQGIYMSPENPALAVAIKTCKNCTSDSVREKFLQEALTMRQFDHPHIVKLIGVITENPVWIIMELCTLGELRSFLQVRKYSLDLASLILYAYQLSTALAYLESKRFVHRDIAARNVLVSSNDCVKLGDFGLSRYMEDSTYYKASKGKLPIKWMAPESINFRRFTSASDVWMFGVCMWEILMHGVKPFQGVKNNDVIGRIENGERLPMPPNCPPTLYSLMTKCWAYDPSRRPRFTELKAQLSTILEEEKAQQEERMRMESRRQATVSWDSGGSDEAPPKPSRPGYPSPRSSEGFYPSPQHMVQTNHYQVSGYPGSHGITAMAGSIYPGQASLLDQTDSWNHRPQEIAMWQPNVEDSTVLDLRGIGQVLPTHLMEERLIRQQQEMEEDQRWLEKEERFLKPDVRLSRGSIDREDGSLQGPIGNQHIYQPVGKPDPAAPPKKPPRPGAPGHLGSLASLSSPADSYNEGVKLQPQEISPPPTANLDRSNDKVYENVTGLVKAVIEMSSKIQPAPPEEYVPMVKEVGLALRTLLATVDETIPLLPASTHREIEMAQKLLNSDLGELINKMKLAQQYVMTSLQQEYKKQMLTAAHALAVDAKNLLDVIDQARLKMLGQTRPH

| Structure (SMILES) | remaining activity at 5 µM [1] | remaining activity at 5 µM [2] | remaining activity at 5 µM [3] | remaining activity at 5 µM [4] | remaining activity at 5 µM [5] | remaining activity at 5 µM [6] | remaining activity at 5 µM [7] | remaining activity at 5 µM [8] | remaining activity at 10 µM ([1]; 10 uM) | remaining activity at 10 µM ([2]; 10 uM) | remaining activity at 10 µM ([3]; 10 uM) | remaining activity at 10 µM ([4]; 10 uM) | remaining activity at 10 µM ([5]; 10 uM) | remaining activity at 10 µM ([6]; 10 uM) | remaining activity at 10 µM ([7]; 10 uM) | remaining activity at 10 µM ([8]; 10 uM) |
| --- | --- | --- | --- | --- | --- | --- | --- | --- | --- | --- | --- | --- | --- | --- | --- | --- |
| O=C(Nc1cnn(-c2csc(C(=O)NC3COC3)c2)c1)Nc1ccccc1Cl [Compound 17, 4-(4-(3-(2-chlorophenyl)ureido)-1H-pyrazol-1-yl)-N-(oxetan-3-yl)thiophene-2-carboxamide] | 95.7% | 104% | 103% | 99.4% | 87.1% | 97.8% | 114% | 97.3% | – | – | – | – | – | – | – | – |
| O=C(Nc1cnn(-c2csc(C(=O)NC3COC3)c2)c1)Nc1c(F)cccc1Cl [Compound 25, 4-(4-(3-(2-chloro-6-fluorophenyl)ureido)-1H-pyrazol-1-yl)-N-(oxetan-3-yl)thiophene-2-carboxamide] | 89% | 96.1% | 93.8% | 98.3% | 98% | 90.3% | 98.7% | 96.6% | – | – | – | – | – | – | – | – |
| Cc1sc(C(=O)NC2COC2)cc1-n1cc(NC(=O)Nc2c(F)cccc2Cl)cn1 [Compound 27, 4-(4-(3-(2-chloro-6-fluorophenyl)ureido)-1H-pyrazol-1-yl)-5-methyl-N-(oxetan-3-yl)thiophene-2-carboxamide] | – | – | – | – | – | – | – | – | 104% | 109% | 91.7% | 90.5% | 115% | 99.8% | 98.5% | 95.5% |
